Columns and labels:
barnyardgrass = test: Test A pre-/postemergence greenhouse test; assay type: in vivo, Echinochloa crus-galli; details: for Barnyardgrass plant response rating: 0 to 100 scale; for Plant response rating, Barnyardgrass: 0 to 100 scale where 0 is no effect and 100 is complete control
How it was run: (§1)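 Visual injury ratings against untreated controls, taken roughly ten days after treatment in greenhouse. Plants were sprayed postemergence at one- to two-leaf stage (2–10 cm tall); at the same time, seeded loam/sand soil received a directed preemergence spray. Formulation: non-phytotoxic solvent mixture with surfactant.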

velvetleaf = test: Test A pre-/postemergence greenhouse test; assay type: in vivo, Abutilon theophrasti; details: for Velvetleaf plant response rating: 0 to 100 scale; for Plant response rating, Velvetleaf: 0 to 100 scale where 0 is no effect and 100 is complete control
How it was run: as §1

green foxtail = test: Test C pre-/postemergence test; assay type: in vivo, Setaria viridis; details: for Plant response rating (0 to 100), Foxtail, Green: 250 g ai/ha
How it was run: (§2)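 Compounds in a non-phytotoxic solvent with surfactant applied preemergence to seeded pots and, at the same time, postemergence to plants 2–18 cm tall (1- to 4-leaf stage). Paddy tests: pots flooded to 3 cm, compound applied into the water, depth held throughout.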

Italian ryegrass = test: Test C pre-/postemergence test; assay type: in vivo, Lolium multiflorum
How it was run: as §2

goosegrass = test: Test F preemergence test; assay type: in vivo, Eleusine indica; details: scale 0 to 100
How it was run: (§3)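 Visual ratings relative to controls, taken after 14 to 21 days in a greenhouse. Test chemicals, formulated in a surfactant-containing non-phytotoxic solvent mixture, were applied preemergence to sown seeds or postemergence to sugarcane plants.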

johnsongrass = test: Test F preemergence test; assay type: in vivo, Sorghum halepense; details: scale 0 to 100
How it was run: as §3

kochia = test: Test F preemergence test; assay type: in vivo, Kochia scoparia; details: scale 0 to 100
How it was run: as §3

purple nutsedge = test: Test F preemergence test; assay type: in vivo, Cyperus rotundus; details: scale 0 to 100
How it was run: as §3

dallisgrass = test: Test F preemergence test; assay type: in vivo, Paspalum dilatatum; details: scale 0 to 100
How it was run: as §3

broadleaf signalgrass = test: Test F preemergence test; assay type: in vivo, Brachiaria platyphylla; details: scale 0 to 100; for Plant response rating, Signalgrass: 31 g ai/ha
How it was run: as §3

common groundsel = test: Test F preemergence test; assay type: in vivo, Senecio vulgaris; details: scale 0 to 100
How it was run: as §3

Virginia dayflower = test: Test F preemergence test; assay type: in vivo, Commelina virginica; details: scale 0 to 100
How it was run: as §3

itchgrass = test: Test F preemergence test; assay type: in vivo, Rottboellia cochinchinensis; details: scale 0 to 100
How it was run: as §3

[1] = Postemergence, 125 g ai/ha, 0 is no effect, 100 is complete control
[2] = Postemergence, 500 g ai/ha, 0 is no effect, 100 is complete control
[3] = Preemergence, 125 g ai/ha, 0 no effect, 100 complete control
[4] = 62 g ai/ha, Preemergence, scale 0 to 100
[5] = Preemergence, 31 g ai/ha, scale 0 to 100 (0 no effect, 100 complete control)
[6] = 31 g ai/ha, Preemergence, scale 0 to 100
[7] = 62 g ai/ha, preemergence, scale 0 (no effect) to 100 (complete control)
[8] = preemergence, 125 g ai/ha, scale 0 (no effect) to 100 (complete control)

Q: Which results are given for `Cc1cc[n+]([O-])c([S+]([O-])Cc2c(C(F)(F)F)nn(C)c2OCC(F)(F)F)c1` (racemic) [Compound 30]?
A: Barnyardgrass plant response rating (barnyardgrass; [1]): 70; Barnyardgrass plant response rating (barnyardgrass; [2]): 90; Barnyardgrass plant response rating (barnyardgrass; [3]): 100; Plant response rating, Barnyardgrass (barnyardgrass; Preemergence, 500 g ai/ha): 100; Velvetleaf plant response rating (velvetleaf; [1]): 50; Velvetleaf plant response rating (velvetleaf; [2]): 70; Velvetleaf plant response rating (velvetleaf; [3]): 90; Plant response rating, Velvetleaf (velvetleaf; Preemergence, 500 g ai/ha): 100; Foxtail, Green plant response rating (green foxtail; [4]): 100; Plant response rating, Foxtail, Green (green foxtail; [5]): 100; Plant response rating (0 to 100), Foxtail, Green (green foxtail; Preemergence): 100; Ryegrass, Italian plant response rating (Italian ryegrass; [4]): 70; Plant response rating, Ryegrass, Italian (Italian ryegrass; [5]): 0; Goosegrass plant response rating (goosegrass; 62 g ai/ha, Preemergence): 90; Goosegrass plant response rating (goosegrass; 125 g ai/ha, preemergence): 98; Plant response rating, Goosegrass (goosegrass; Preemergence, 16 g ai/ha): 40; Plant response rating, Goosegrass (goosegrass; Preemergence, 31 g ai/ha): 75; Johnsongrass plant response rating (johnsongrass; 62 g ai/ha, Preemergence): 80; Johnsongrass plant response rating (johnsongrass; 125 g ai/ha, preemergence): 100; Plant response rating, Johnsongrass (johnsongrass; Preemergence, 16 g ai/ha): 40; Plant response rating, Johnsongrass (johnsongrass; Preemergence, 31 g ai/ha): 60; Kochia plant response rating (kochia; 62 g ai/ha, Preemergence): 95; Kochia plant response rating (kochia; 125 g ai/ha, preemergence): 95; Plant response rating, Kochia (kochia; Preemergence, 16 g ai/ha): 90; Plant response rating, Kochia (kochia; Preemergence, 31 g ai/ha): 90; Purple Nutsedge plant response rating (purple nutsedge; 62 g ai/ha, Preemergence): 70; Purple Nutsedge plant response rating (purple nutsedge; 125 g ai/ha, preemergence): 90; Plant response rating, Purple Nutsedge (purple nutsedge; Preemergence, 16 g ai/ha): 0; Plant response rating, Purple Nutsedge (purple nutsedge; Preemergence, 31 g ai/ha): 40; Dallisgrass plant response rating (dallisgrass; 62 g ai/ha, Preemergence): 85; Dallisgrass plant response rating (dallisgrass; 125 g ai/ha, preemergence): 98; Plant response rating, Dallisgrass (dallisgrass; Preemergence, 16 g ai/ha): 50; Plant response rating, Dallisgrass (dallisgrass; Preemergence, 31 g ai/ha): 50; Signalgrass plant response rating (broadleaf signalgrass; 62 g ai/ha, Preemergence): 70; Signalgrass plant response rating (broadleaf signalgrass; 125 g ai/ha, preemergence): 90; Plant response rating, Signalgrass (broadleaf signalgrass; Preemergence): 65; Groundsel plant response rating (common groundsel; 62 g ai/ha, Preemergence): 90; Groundsel plant response rating (common groundsel; 125 g ai/ha, preemergence): 100; Plant response rating, Groundsel (common groundsel; Preemergence, 16 g ai/ha): 50; Plant response rating, Groundsel (common groundsel; Preemergence, 31 g ai/ha): 90; Dayflower plant response rating (Virginia dayflower; 62 g ai/ha, Preemergence): 90; Dayflower plant response rating (Virginia dayflower; 125 g ai/ha, preemergence): 100; Plant response rating, Dayflower (Virginia dayflower; Preemergence, 16 g ai/ha): 50; Plant response rating, Dayflower (Virginia dayflower; Preemergence, 31 g ai/ha): 70; Itchgrass plant response rating (itchgrass; 62 g ai/ha, Preemergence): 70; Itchgrass plant response rating (itchgrass; 125 g ai/ha, preemergence): 85; Plant response rating, Itchgrass (itchgrass; Preemergence, 16 g ai/ha): 20; Plant response rating, Itchgrass (itchgrass; Preemergence, 31 g ai/ha): 25

Q: `Cn1nc(C(F)(F)F)c(C[S+]([O-])c2cccc[n+]2[O-])c1Cl` (stereo not drawn) [Compound 8] was tested. Which “Barnyardgrass plant response rating” value (barnyardgrass; [1]) did it give?
A: 80

Q: And the “Barnyardgrass plant response rating” value (barnyardgrass; [2])?
A: 80

Q: And the “Barnyardgrass plant response rating” value (barnyardgrass; [3])?
A: 90

Q: What about the “Plant response rating, Barnyardgrass” value (barnyardgrass; Preemergence, 500 g ai/ha) of the same compound?
A: 100

Q: What about the “Velvetleaf plant response rating” value (velvetleaf; [1]) of the same compound?
A: 40

Q: And the “Velvetleaf plant response rating” value (velvetleaf; [2])?
A: 70

Q: What about the “Velvetleaf plant response rating” value (velvetleaf; [3]) of the same compound?
A: 70

Q: And the “Plant response rating, Velvetleaf” value (velvetleaf; Preemergence, 500 g ai/ha)?
A: 80

Q: And the “Foxtail, Green plant response rating” value (green foxtail; [6])?
A: 100

Q: What about the “Foxtail, Green plant response rating” value (green foxtail; [7]) of the same compound?
A: 100

Q: And the “Plant response rating (0 to 100), Foxtail, Green” value (green foxtail; Preemergence)?
A: 100

Q: And the “Foxtail, Green plant response rating” value (green foxtail; [8])?
A: 100

Q: And the “Ryegrass, Italian plant response rating” value (Italian ryegrass; [6])?
A: 0

Q: And the “Ryegrass, Italian plant response rating” value (Italian ryegrass; [7])?
A: 50

Q: What about the “Plant response rating (0 to 100), Ryegrass, Italian” value (Italian ryegrass; Preemergence, 250 g ai/ha) of the same compound?
A: 95

Q: What about the “Ryegrass, Italian plant response rating” value (Italian ryegrass; [8]) of the same compound?
A: 70

Q: What about the “Goosegrass plant response rating” value (goosegrass; 62 g ai/ha, Preemergence) of the same compound?
A: 80

Q: What about the “Goosegrass plant response rating” value (goosegrass; 125 g ai/ha, preemergence) of the same compound?
A: 100

Q: And the “Plant response rating, Goosegrass” value (goosegrass; Preemergence, 16 g ai/ha)?
A: 0

Q: And the “Plant response rating, Goosegrass” value (goosegrass; Preemergence, 31 g ai/ha)?
A: 70

Q: And the “Johnsongrass plant response rating” value (johnsongrass; 62 g ai/ha, Preemergence)?
A: 95

Q: What about the “Johnsongrass plant response rating” value (johnsongrass; 125 g ai/ha, preemergence) of the same compound?
A: 95

Q: What about the “Plant response rating, Johnsongrass” value (johnsongrass; Preemergence, 16 g ai/ha) of the same compound?
A: 0

Q: And the “Plant response rating, Johnsongrass” value (johnsongrass; Preemergence, 31 g ai/ha)?
A: 75

Q: What about the “Kochia plant response rating” value (kochia; 62 g ai/ha, Preemergence) of the same compound?
A: 0

Q: What about the “Kochia plant response rating” value (kochia; 125 g ai/ha, preemergence) of the same compound?
A: 100

Q: And the “Plant response rating, Kochia” value (kochia; Preemergence, 16 g ai/ha)?
A: 0

Q: And the “Plant response rating, Kochia” value (kochia; Preemergence, 31 g ai/ha)?
A: 0

Q: And the “Purple Nutsedge plant response rating” value (purple nutsedge; 62 g ai/ha, Preemergence)?
A: 50

Q: What about the “Purple Nutsedge plant response rating” value (purple nutsedge; 125 g ai/ha, preemergence) of the same compound?
A: 65

Q: And the “Plant response rating, Purple Nutsedge” value (purple nutsedge; Preemergence, 16 g ai/ha)?
A: 0

Q: And the “Plant response rating, Purple Nutsedge” value (purple nutsedge; Preemergence, 31 g ai/ha)?
A: 0

Q: And the “Dallisgrass plant response rating” value (dallisgrass; 62 g ai/ha, Preemergence)?
A: 80

Q: What about the “Dallisgrass plant response rating” value (dallisgrass; 125 g ai/ha, preemergence) of the same compound?
A: 98

Q: And the “Plant response rating, Dallisgrass” value (dallisgrass; Preemergence, 16 g ai/ha)?
A: 0

Q: What about the “Plant response rating, Dallisgrass” value (dallisgrass; Preemergence, 31 g ai/ha) of the same compound?
A: 20

Q: And the “Signalgrass plant response rating” value (broadleaf signalgrass; 62 g ai/ha, Preemergence)?
A: 75

Q: What about the “Signalgrass plant response rating” value (broadleaf signalgrass; 125 g ai/ha, preemergence) of the same compound?
A: 85

Q: And the “Plant response rating, Signalgrass” value (broadleaf signalgrass; Preemergence)?
A: 65

Q: What about the “Groundsel plant response rating” value (common groundsel; 62 g ai/ha, Preemergence) of the same compound?
A: 65

Q: And the “Groundsel plant response rating” value (common groundsel; 125 g ai/ha, preemergence)?
A: 80

Q: And the “Plant response rating, Groundsel” value (common groundsel; Preemergence, 16 g ai/ha)?
A: 0

Q: And the “Plant response rating, Groundsel” value (common groundsel; Preemergence, 31 g ai/ha)?
A: 0

Q: What about the “Dayflower plant response rating” value (Virginia dayflower; 62 g ai/ha, Preemergence) of the same compound?
A: 0

Q: What about the “Dayflower plant response rating” value (Virginia dayflower; 125 g ai/ha, preemergence) of the same compound?
A: 75

Q: What about the “Plant response rating, Dayflower” value (Virginia dayflower; Preemergence, 16 g ai/ha) of the same compound?
A: 0

Q: And the “Plant response rating, Dayflower” value (Virginia dayflower; Preemergence, 31 g ai/ha)?
A: 0

Q: What about the “Itchgrass plant response rating” value (itchgrass; 62 g ai/ha, Preemergence) of the same compound?
A: 80

Q: What about the “Itchgrass plant response rating” value (itchgrass; 125 g ai/ha, preemergence) of the same compound?
A: 95

Q: And the “Plant response rating, Itchgrass” value (itchgrass; Preemergence, 16 g ai/ha)?
A: 0

Q: And the “Plant response rating, Itchgrass” value (itchgrass; Preemergence, 31 g ai/ha)?
A: 15
